Laboratory results from patent publication US20230165831A1, “METHOD AND COMPOSITION FOR RENDERING CANCER CELLS SUSCEPTIBLE TO TREATMENT BY TARGETED ONCOGENETIC DRIVERS” (IMPACT BIOLIFE SCIENCE, INC., priority 2021, published 2023).
Read-outs that look alike come from different tables or passages of the source.

Columns and labels:
[1] = tested on: kidney cancer line 786-O cells; assay: CTG (CellTiter-Glo) cell viability assay, 6×6 combo matrix, 72 h, 786-O; details: Homo sapiens;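 note: luminescence read-out after adding CellTiter-Glo reagent, with cells incubated at 37 °C under 5% CO2 during compound exposure, part of a ten cell line synergy study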
[2] = tested on: Liver cancer line SK-HEP-1 cells; assay: CTG (CellTiter-Glo) cell viability assay, 6×6 combo matrix, 72 h, SK-Hep-1; details: Homo sapiens;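 note: luminescent signal read after 72 h compound exposure at 37 °C under 5% CO2, with medium-only wells serving as blank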
Protocol: 7) Using complete cell medium, adjust the volume of the suspension to achieve a cell concentration.
Solid compound of cis-platinum was solubilized in PBS to a stock solution of 3.333 mM.
Final volume is 100 µL per well at this point.
1) Incubate the plates at room temperature and away from light for 30 minutes.
3) Add 100 µL /well of CellTiter-Glo® Reagent in each well. Avoid light.
4) Mix contents for 2 minutes on an orbital shaker.
5) Incubate plate at room temperature for 10 minutes to stabilize the luminescent signal.

[3] = tested on: pancreatic cancer line Capan-1 cells; assay: CTG (CellTiter-Glo) cell viability assay, 6×6 combo matrix, 72 h, Capan-1; type: cell-based; details: for Relatively Cell inhibition of vehicle control(%): Capan-1
Protocol: To measure the cell inhibition effect of compounds and synergy effect of test articles on ten (10) cell lines using standard CTG assay.
b. A549, T47D, SK-OV-3, MKN45, SK-Hep-1, HT-29, Capan-1, 786-O and LNCaP cell line, for compounds and vehicle groups, the seeding density of cell lines is 3000 cells/80 µL per well. For blank groups, add 100 µL medium. For PBS groups, add 100 µL PBS.
8) Incubate the U87MG, A549, T47D, SK-OV-3, MKN45, SK-Hep-1, HT-29, Capan-1, 786-O and LNCaP cells overnight at 37° C./5% CO2.
5) Incubate the plates at 37° C./5% CO2 for 72 hours.
6) Read plates in Envision.

[4] = tested on: prostate adenocarcinoma line LNCap cells; assay: CTG (CellTiter-Glo) cell viability assay, 6×6 combo matrix, 72 h, LNCaP; details: Homo sapiens, LNCaP;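 note: luminescence signal read after adding CellTiter-Glo reagent, with cells exposed to compounds for 72 h at 37 °C under 5% CO2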
[5] = tested on: ovarian cancer line SK-OV3 cells; assay: CTG (CellTiter-Glo) cell viability assay, 6×6 combo matrix, 72 h, SK-OV-3; details: SK-OV-3;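 note: luminescent signal read after CellTiter-Glo addition, cells exposed to compounds for 72 h at 37 °C under 5% CO2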
[6] = Homo sapiens, CAPAN-1, read-out: inhibition rate
[7] = Myr 0.8 µM only (cisplatin matrix)
[8] = Myr 0.8 µM only (doxorubicin matrix)
[9] = Myr 0.8 µM only (topotecan matrix)

## O=c1c(O)c(-c2cc(O)c(O)c(O)c2)oc2cc(O)cc(O)c12 [myricetin]
[1]; 786-0, read-out: Relatively Cell inhibition of vehicle control, myricetin 0.8 µM only (cisplatin table)
  inhibition at 0.8 µM: 0.79%
[1]; 786-0, read-out: Relatively Cell inhibition of vehicle control, myricetin 0.8 µM only (doxorubicin table)
  inhibition at 0.8 µM: 0.86%
[1]; 786-0, read-out: Relatively Cell inhibition of vehicle control, myricetin 0.8 µM only (taxol table)
  inhibition at 0.8 µM: 0.33%
[1]; 786-0, read-out: Relatively Cell inhibition of vehicle control, myricetin 0.8 µM only (topotecan table)
  inhibition at 0.8 µM: 0.12%
[1]; 786-0, read-out: Relatively Cell inhibition of vehicle control, myricetin 4 µM only (cisplatin table)
  inhibition at 4 µM: 2.54%
[1]; 786-0, read-out: Relatively Cell inhibition of vehicle control, myricetin 4 µM only (doxorubicin table)
  inhibition at 4 µM: 4.47%
[1]; 786-0, read-out: Relatively Cell inhibition of vehicle control, myricetin 4 µM only (taxol table)
  inhibition at 4 µM: 2.6%
[1]; 786-0, read-out: Relatively Cell inhibition of vehicle control, myricetin 4 µM only (topotecan table)
  inhibition at 4 µM: 4.03%
[1]; 786-0, read-out: Relatively Cell inhibition of vehicle control, myricetin 20 µM only (cisplatin table)
  inhibition at 20 µM: 10.8%
[1]; 786-0, read-out: Relatively Cell inhibition of vehicle control, myricetin 20 µM only (doxorubicin table)
  inhibition at 20 µM: 11.2%
[1]; 786-0, read-out: Relatively Cell inhibition of vehicle control, myricetin 20 µM only (taxol table)
  inhibition at 20 µM: 9.84%
[1]; 786-0, read-out: Relatively Cell inhibition of vehicle control, myricetin 20 µM only (topotecan table)
  inhibition at 20 µM: 10.4%
[1]; 786-0, read-out: Relatively Cell inhibition of vehicle control, myricetin 100 µM only (cisplatin table)
  inhibition at 100 µM: 43.4%
[1]; 786-0, read-out: Relatively Cell inhibition of vehicle control, myricetin 100 µM only (doxorubicin table)
  inhibition at 100 µM: 43.1%
[1]; 786-0, read-out: Relatively Cell inhibition of vehicle control, myricetin 100 µM only (taxol table)
  inhibition at 100 µM: 42%
[1]; 786-0, read-out: Relatively Cell inhibition of vehicle control, myricetin 100 µM only (topotecan table)
  inhibition at 100 µM: 44.8%
[2]; SK-HEP1, read-out: Relatively Cell inhibition of vehicle control, myricetin 0.8 µM only (cisplatin table)
  inhibition at 0.8 µM: -11.5%
[2]; SK-HEP1, read-out: Relatively Cell inhibition of vehicle control, myricetin 0.8 µM only (doxorubicin table)
  inhibition at 0.8 µM: -9.74%
[2]; SK-HEP1, read-out: Relatively Cell inhibition of vehicle control, myricetin 0.8 µM only (taxol table)
  inhibition at 0.8 µM: -6.66%
[2]; SK-HEP1, read-out: Relatively Cell inhibition of vehicle control, myricetin 0.8 µM only (topotecan table)
  inhibition at 0.8 µM: -19.3%
[2]; SK-HEP1, read-out: Relatively Cell inhibition of vehicle control, myricetin 4 µM only (cisplatin table)
  inhibition at 4 µM: 20.2%
[2]; SK-HEP1, read-out: Relatively Cell inhibition of vehicle control, myricetin 4 µM only (doxorubicin table)
  inhibition at 4 µM: 32.3%
[2]; SK-HEP1, read-out: Relatively Cell inhibition of vehicle control, myricetin 4 µM only (taxol table)
  inhibition at 4 µM: 22.8%
[2]; SK-HEP1, read-out: Relatively Cell inhibition of vehicle control, myricetin 4 µM only (topotecan table)
  inhibition at 4 µM: 16.8%
[2]; SK-HEP1, read-out: Relatively Cell inhibition of vehicle control, myricetin 20 µM only (cisplatin table)
  inhibition at 20 µM: 92.4%
[2]; SK-HEP1, read-out: Relatively Cell inhibition of vehicle control, myricetin 20 µM only (doxorubicin table)
  inhibition at 20 µM: 93.5%
[2]; SK-HEP1, read-out: Relatively Cell inhibition of vehicle control, myricetin 20 µM only (taxol table)
  inhibition at 20 µM: 92.8%
[2]; SK-HEP1, read-out: Relatively Cell inhibition of vehicle control, myricetin 20 µM only (topotecan table)
  inhibition at 20 µM: 93.2%
[2]; SK-HEP1, read-out: Relatively Cell inhibition of vehicle control, myricetin 100 µM only (cisplatin table)
  inhibition at 100 µM: 99.6%
[2]; SK-HEP1, read-out: Relatively Cell inhibition of vehicle control, myricetin 100 µM only (doxorubicin table)
  inhibition at 100 µM: 99.4%
[2]; SK-HEP1, read-out: Relatively Cell inhibition of vehicle control, myricetin 100 µM only (taxol table)
  inhibition at 100 µM: 99.6%
[2]; SK-HEP1, read-out: Relatively Cell inhibition of vehicle control, myricetin 100 µM only (topotecan table)
  inhibition at 100 µM: 99.4%
[3]; [6]
  inhibition at 4 µM: 6.24%
  inhibition at 100 µM: 23.3%
[3]; Myr 4 pM only (topotecan matrix)
  Relatively Cell inhibition of vehicle control(%): 0.67%
[3]; Myr 20 pM only (doxorubicin matrix)
  Relatively Cell inhibition of vehicle control(%): 11.98%
[3]; Myr 20 pM only (topotecan matrix)
  Relatively Cell inhibition of vehicle control(%): 5.10%
[3]; Myr 100 pM only (doxorubicin matrix)
  Relatively Cell inhibition of vehicle control(%): 30.94%
[3]; [7]
  Relatively Cell inhibition of vehicle control(%): 1.28%
[3]; [8]
  Relatively Cell inhibition of vehicle control(%): 7.91%
[3]; Myr 0.8 µM only (taxol matrix)
  Relatively Cell inhibition of vehicle control(%): 3.71%
[3]; [9]
  Relatively Cell inhibition of vehicle control(%): -6.16%
[3]; Myr 4 µM only (cisplatin matrix)
  Relatively Cell inhibition of vehicle control(%): 6.73%
[3]; Myr 4 µM only (taxol matrix)
  Relatively Cell inhibition of vehicle control(%): 7.41%
[3]; Myr 20 µM only (cisplatin matrix)
  Relatively Cell inhibition of vehicle control(%): 10.48%
[3]; Myr 20 µM only (taxol matrix)
  Relatively Cell inhibition of vehicle control(%): 9.11%
[3]; Myr 100 µM only (cisplatin matrix)
  Relatively Cell inhibition of vehicle control(%): 31.40%
[3]; Myr 100 µM only (taxol matrix)
  Relatively Cell inhibition of vehicle control(%): 30.66%
[4]; read-out: Relatively Cell inhibition of vehicle control(%), myricetin 0.8 µM only (cisplatin plate)
  inhibition at 0.8 µM: -1.65%
[4]; read-out: Relatively Cell inhibition of vehicle control(%), myricetin 0.8 µM only (doxorubicin plate)
  inhibition at 0.8 µM: -0.32%
[4]; read-out: Relatively Cell inhibition of vehicle control(%), myricetin 0.8 µM only (taxol plate)
  inhibition at 0.8 µM: -2.06%
[4]; read-out: Relatively Cell inhibition of vehicle control(%), myricetin 0.8 µM only (topotecan plate)
  inhibition at 0.8 µM: -2.79%
[4]; read-out: Relatively Cell inhibition of vehicle control(%), myricetin 4 µM only (cisplatin plate)
  inhibition at 4 µM: 0.26%
[4]; read-out: Relatively Cell inhibition of vehicle control(%), myricetin 4 µM only (doxorubicin plate)
  inhibition at 4 µM: -3.26%
[4]; read-out: Relatively Cell inhibition of vehicle control(%), myricetin 4 µM only (taxol plate)
  inhibition at 4 µM: -5.5%
[4]; read-out: Relatively Cell inhibition of vehicle control(%), myricetin 4 µM only (topotecan plate)
  inhibition at 4 µM: 8.5%
[4]; read-out: Relatively Cell inhibition of vehicle control(%), myricetin 20 µM only (cisplatin plate)
  inhibition at 20 µM: -3.11%
[4]; read-out: Relatively Cell inhibition of vehicle control(%), myricetin 20 µM only (doxorubicin plate)
  inhibition at 20 µM: -2.66%
[4]; read-out: Relatively Cell inhibition of vehicle control(%), myricetin 20 µM only (taxol plate)
  inhibition at 20 µM: 4.8%
[4]; read-out: Relatively Cell inhibition of vehicle control(%), myricetin 20 µM only (topotecan plate)
  inhibition at 20 µM: 6.5%
[4]; read-out: Relatively Cell inhibition of vehicle control(%), myricetin 100 µM only (cisplatin plate)
  inhibition at 100 µM: 27.2%
[4]; read-out: Relatively Cell inhibition of vehicle control(%), myricetin 100 µM only (doxorubicin plate)
  inhibition at 100 µM: 21.1%
[4]; read-out: Relatively Cell inhibition of vehicle control(%), myricetin 100 µM only (taxol plate)
  inhibition at 100 µM: 31.4%
[4]; read-out: Relatively Cell inhibition of vehicle control(%), myricetin 100 µM only (topotecan plate)
  inhibition at 100 µM: 30.1%
[5]; [7]
  Relatively Cell inhibition of vehicle control(%): 2.08%
[5]; [8]
  Relatively Cell inhibition of vehicle control(%): 0.36%
[5]; Myr 0.8 µM only (taxol matrix)
  Relatively Cell inhibition of vehicle control(%): 0.71%
[5]; [9]
  Relatively Cell inhibition of vehicle control(%): 4.27%
